Measured values taken from patent US20090214669A1, “Combination anticancer therapy and pharmaceutical compositions therefore” (priority 2004, published 2009).
Entries after “also recorded” stand apart in the source; their conditions may differ.

How the values were obtained:
[1] = test system: spleen cells expressing CD4, CD8, and NK1.1; test: Flow cytometric analysis of spleen cell subsets; format: in vivo, C57BL/6 mice; conditions: for NK (%): NK1.1 positive cells vs total spleen cells; for NK (%) / CD4^+ (%) / CD8^+ (%): mean ± S.E.M; for CD4^+ (%) / CD8^+ (%): positive cells vs total spleen cells
Procedure: Splenocytes from individual mice were analysed by flow cytometry. The following monoclonal antibodies were used for double fluorescence analysis of spleen cell subsets: fluorescein (FITC)-conjugated anti-mouse NK1.1 PE (PharMingen, San Diego, Calif.), PE-conjugated anti-mouse CD4 (PharMingen), FITC-conjugated anti-mouse CD8 (PharMingen). Approximately 1×10^6 spleen cells were resuspended in […] of CM and staining was performed at 4° C. for 30 minutes. Cells were then washed twice in PBS containing 0.02% sodium azide and flow cytometric analysis was performed using a FACscan flow cytometer (Becton Dickinson).
Fluorescence data were collected using a 488 nm excitation wavelength from a 15 mW air-cooled argon-ion laser. […] A minimum of 5,000 events were collected on each sample and acquired in list mode by a Hewlett Packard 9000 computer. To exclude dead cells, debris, non lymphoid cells, and cell aggregates, data collection was gated on live spleen lymphocytes by forward and side angle scatter. Data are represented as the percentage of positive cells over the total number of cells counted.

[2] = test system: B16 melanoma; test: B16 melanoma model: tumour growth and survival time; format: in vivo, C57BL/6 mice; conditions: CY 200 mg/Kg i.p. day 7; OM-174 1 mg/kg i.p. days 8, 13, 18, 23, 28; vs untreated controls
Procedure: Four to six weeks-old male C57BL/6 mice were purchased from Charles River (Calco, Corno, Italy). B 16 melanoma tumour cells were serially passaged subcutaneously (s.c.) in syngenic mice. On day 0, mice were injected s.c. in the right flank with 2×10^5 B16 melanoma cells. Tumour growth was measured daily in each mouse, using calipers, and mean tumour diameter per day was calculated. At day 7 after tumour injection, all mice with s.c. tumours of about 2-3 mm diameter were divided into different experimental groups, i.e. phosphate buffered saline (PBS)-injected control 3, CY, OM-174 or CY with OM-174.
Cyclophosphamide (Sigma, St. Louis, Mo.) was dissolved at 20 mg/ml in PBS immediately before use, and 0.2 ml per mouse were injected intraperitoneally. Each treated animal received a single dose of 200 mg/Kg CY on day 7.
Kaplan-Meier method was used to estimate the survivor functions and Log-rank test was performed for testing the homogeneity of survival functions across the four groups (control, CY, OM-174, CY+OM-174).
Tumor growth was analyzed by T-test for unpaired data.

[3] = test system: EMT-6 cells; test: NO production (nitrite, Griess method) by EMT-6 cells exposed to OM-174; format: cell-based, mouse; conditions: 16 hours
Procedure: Murine mammary adenocarcinoma EMT-6 cells were cultured in RPMI medium+10% bovine calf serum in plastic flasks. EMT-6 monolayer cultures grown to early confluence were exposed to OM-174 for 16 hours in both conditions (21% and 1% oxygen). After treatment with OM-174, nitrite determination using the classical Griess method was performed. Values were normalized for 200'000 cells per well.

[4] = test system: PROb subcutaneous colon tumors; format: in vivo, BDIX rats
[5] = test system: PROb cells; test: BDIX/PROb peritoneal carcinomatosis, cisplatin combined with OM-174, survival; format: in vivo, BDIX rats; conditions: cisplatin 3 mg/kg i.v. day 21; OM-174 1 mg/kg i.v., 5 injections every 5th day from day 28 or 35
Procedure: Colon cancer PROb cells were originally obtained from a tumor of a BDIX rat induced by 1,2-dimethylhydrazine.
The BDIX strain of rats was established in 1937 by H. Druckrey. Nowadays these rats come from Iffa-Credo (L'Asbresle, France).
BDIX rats, 4 months±1 month at the beginning of the experiment, 7 animals/group, received i.p. cultured syngenic PROb cells (i.p) on day 0. Cisplatin (3 mg/kg) was injected i.v. on day 21, and OM-174 treatment (1 mg/kg, 5 injections i.v. in the penile vein every 5th day) started either on days 28 or 35. Survival was followed until day 72 in the example presented here.
In this example, cisplatin (3 mg/kg i.v) is given on day 21. A further immunostimulating treatment with OM-174 is started only on day 28 or 35 (1 mg/kg, 5 injections i.v. every 5th day).

[6] = test system: B16 melanoma cells; test: Cytotoxic (CTL) activity of spleen cells against autologous tumour cells, 51Cr-release assay; conditions: for CTL % cytotoxicity: E/T ratio 25:1
Excerpt: (§1) Mice were sacrificed by cervical dislocation on day 14 after tumour inoculation.
(§2) In vitro-passaged YAC-1 cells (a Moloney-virus induced mouse T cells lymphoma of A/SN origin), and in vivo-passaged B16 melanoma cells, were used as target cells in a chromium-release assay. B16 melanoma cells were obtained from tumour-bearing mice, seeded in cell-culture flasks (Falcon, Becton Dickinson and Co., Plymouth, England) and used within the first week of culture in CM. B16 and YAC-1 cell lines were obtained from the laboratory collection, and were originally obtained from the American Tissue Culture Collection (ATCC).
(§3) The cytotoxic activity of the effector cells collected from individual mice was measured by a standard 4-hour ^51Cr-release assay. Briefly, target cells were harvested from the cultures, washed twice, resuspended at 5×10^6 cells in 0.9 ml of CM and labelled with 100 μCi (^51Cr) sodium chromate (New England Nuclear, Boston, Mass.) for 1 hour at 37° C. in a 5% CO2 incubator. […] The effector cells suspension was added to quadruplicate wells to give three E/T ratios (i.e. 100:1, 50:1, 25:1) in a final volume of 200 μl per well. The plates were then incubated for 4 hours at 37° C. in a 5% CO2 incubator, 100 μl of supernatants were collected from each well, and the radioactivity was measured using a gamma counter. Total mean cytotoxicity±S.E.M. were calculated from quadruplicate cpm values from individual spleens.
It has been tested from spleen cells from normal and tumour-bearing mice for specific cytotoxic activity against autologous tumour cells using in-vivo passaged B16 melanoma cells as target.

[7] = test system: ProB cells; conditions: cited from earlier work
[8] = test system: YAC-1 cells; test: NK activity of spleen cells, 4-hour 51Cr-release assay
Excerpt: as §1, §2, §3
It has been therefore measured the cytotoxic activity of splenocytes against NK-sensitive (YAC-1) tumour cells.

[9] = Single dose i.v. infusion study of OM-174 in cancer patients (tolerability, cytokines); format: in vivo
Procedure: Doses higher than 1 mg OM-174/m^2 by i.v. infusion were reached without unacceptable toxicity according to non-haematological grade III and haematological grade IV NCI Common Toxicity Criteria.
Secretion occurred in all steps, and appeared more “patient”- than “dose”-dependent.
The results of this single dose study led to the selection of three doses (0.6, 0.8, and 1.0 mg OM-174/m^2) for repeated i.v. injections (5 to 15 injections), used in a phase Ib study.

[10] = B16 tumour-bearing mice, day 14

CCCCCCCCCCCC(=O)O[C@H](CCCCCCCCCCC)CC(=O)N[C@@H]1C(O)[C@H](OP(=O)(O)O)C(CO)O[C@H]1OCC1O[C@H](OP(=O)(O)O)C(NC(=O)C[C@H](O)CCCCCCCCCCC)C(O)[C@@H]1O (some centres unmarked) [OM-174]
NK (%) [1, 10]: 7.5 ± 0.5%
CD4^+ (%) [1, 10]: 27.0 ± 2.0%
CD8^+ (%) [1, 10]: 9.3 ± 1.8%
Percentages of CD4^+, CD8^+ and NK1.1 positive spleen cells (in words) ([1]; normal and tumour-bearing mice): increased the percentages
NK (%) ([1]; normal mice): 11.6 ± 2.1%
CD4^+ (%) ([1]; normal mice): 34.0 ± 2.5%
CD8^+ (%) ([1]; normal mice): 12.6 ± 1.5%
B16 tumour growth (in words, FIG. 1) [2]: partially inhibits tumour progression; also recorded: inhibited slightly but significantly
Survival time (MST) of mice (in words, FIG. 2) [2]: slightly extends the survival time; also recorded: increased slightly but significantly
NO production (in words, FIG. 6) ([3]; hypoxic (1% oxygen) condition): increased production of NO
NO production (in words, FIG. 6) ([3]; normal oxygen levels (21% oxygen)): low amounts of NO
Number of cured animals/total number of animals ([4]; CY 25 mg/kg i.p. day 36, i.t. immunostimulant from day 43 (OM-174 200 μg x12, CpG 100 μg x12, BCG days 43 and 50)): 1/6
Antitumoral effect of single treatment on large, established PROb tumors (in words, FIG. 3) ([4]; agent alone, comparatively to untreated animals): no antitumoral effect
Effect of i.t. immunostimulant on the antitumor activity of CY (in words) ([4]; i.p. CY day 36 combined with i.t. immunostimulant from day 43): strongly enhanced
Complete and lasting tumor regression (animals) ([4]; i.p. CY day 36 followed by i.t. OM-174 from day 43): 4/6
Antitumour activity / survival (in words, FIG. 4) [5]: anticancer effect is lost
CTL % cytotoxicity ([6]; B16 tumour-bearing mice, day 14, CY 200 mg/Kg i.p. day 7, OM-174 1 mg/kg i.p. days 8 and 13, mean ± S.E.): 5.6 ± 0.9%
CTL % cytotoxicity ([6]; normal mice): <1%
Cytotoxic activity against autologous tumour cells (in words) ([6]; tumour-bearing mice): marked stimulation of CTL activity
Increase of CTL activity with respect to tumour controls ([6]; tumour-bearing mice): two-fold increase
Therapeutic activity per se (in words) ([7]; treatment started up to 14 days after tumour induction, WO 95/14026): strong therapeutic activity
Complete remissions ([7]; treatment starts 14 days after the injection of the cancer cells, peritoneal carcinomatoses): 90%
NK activity (in words) ([8]; B16 melanoma-injected mice, day 14): dramatic increase
cytotoxicity at 1 mg/kg ([8]; Mus musculus, YAC-1, ip, read-out: NK % cytotoxicity): 6.3 ± 1.7%
NK cell activity (in words) ([8]; normal mice, vs untreated controls): dramatic increase
NK % cytotoxicity ([8]; normal mice, E/T ratio 25:1, mean ± S.E., five mice): 10.39 ± 1.0 %
Tolerability [9]: well tolerated
Doses reached without unacceptable toxicity ([9]; i.v. infusion, non-haematological grade III and haematological grade IV NCI Common Toxicity Criteria): higher than 1 mg OM-174/m^2
Cytokine secretion (TNF-α, IL-1b, IL-1ra, IL-6, IL-8, sTNF-RI, sTNF-RII, IL-10, IL-2, IL-2sRa, IFN-γ) ([9]; single dose study): secretion profile consistent with that of lipid A derivatives
